Data: US20250289793A1, “MACROCYCLIC INHIBITORS OF ATP CITRATE LYASE” (Esperion Therapeutics, Inc., priority 2022, published 2025)
Like-named read-outs stand apart in the source and are kept apart here.

How the values were obtained:
ACLY [1] = biological target: T1, ACLY (Homo sapiens (Human), UniProt P53396); experiment: Human ACLY (hACLY) RF/MS activity assay; type: biochemical; conditions: 1 nM hACLY; 30 min pre-incubation; 15 μM Coenzyme A, 50 μM ATP, 50 μM citrate; CoA to Acetyl-CoA by RF/MS; read-out: RFMS IC50 GMean
Outline: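 Reaction buffer was 50 mM Hepes pH 8.0, 10 mM MgCl2, 0.003% BSA, 0.01% Brij35, 50 mM NaCl, 4 mM DTT, with 1 nM hACLY and 1% DMSO; compounds (two-fold series from 10 μM) were pre-incubated 30 min at RT. Reaction with 15 μM CoA, 50 μM ATP, 50 μM citrate ran 30 min, formic-acid quenched; CoA and acetyl-CoA quantified by RF/MS as ratio.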

[2] = biological target: Recombinant human ACLY full length protein (Homo sapiens (Human), UniProt P53396); experiment: hACLY ADP-Glo activity assay; type: biochemical; conditions: 0.5 nM ACLY; 15 μM sodium citrate, 1 μM coenzyme A, 80 μM ATP; ADP formed, luminescence; read-out: ADP-Glo IC50 GMean
Description: Compounds of the disclosure were evaluated for their efficacy in inhibiting hACLY using an ADP-Glo™ assays that measure ADP formed from the enzymatic activity of hACLY.
Test compounds were 3-fold serially diluted in DMSO over 11-point concentration range and dispensed onto a 384-well plate. Recombinant human ACLY full length protein was purified. Concentrations of ACLY protein, sodium citrate, coenzyme A, and ATP in the reaction were optimized for standardized homogenous enzyme assay using ADP-Glo™ Kinase (Promega Inc.). The assay measured ADP formed from the enzymatic reaction.
The reaction buffer consisted of the assay buffer (50 mM HEPES pH 8.0, 10 mM MgCl2, 4 mM 1,4-Dithiothreitol, 0.01% Brij® 35).
ACLY protein (0.5 nM) was added to the prepared reaction buffer, and the mixture was dispensed into the assay plate and incubated for 30 minutes at room temperature. Next, 15 μM sodium citrate, 1 μM coenzyme A, and 80 μM ATP were added into the assay plate and incubated for 60 minutes at room temperature. The final reaction volume for each well was 5 μL.
5 μL of ADP-Glo™ reagent was added, and the mixture was incubated for 40 minutes at room temperature. 10 μl ADP-Glo™ detection reagent was added, and the mixture was incubated for 30 minutes at room temperature. Luminescence was determined using EnVision microplate reader with ultra-luminescence module (Perkin Elmer Inc). Concentration-response curve-fitting and IC50 determination was performed using Xlfit Software (version 5.5.0) with a four-parameter logistic regression fit model.

ACLY [3] = biological target: T1, ACLY; experiment: InCell Pulse assay (permeate HEK293 cells, bind to and stabilize ACLY); type: cell-based; conditions: HEK293 cells transfected with pICP-ACLY(FL)-ePL; 1 hour at 37° C., 55° C. heat pulse 10 minutes; read-out: InCell Pulse IC50 GMean
Outline: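 HEK293 cells transiently expressing full-length ACLY-ePL were exposed in OptiMEM to 11-point, 3-fold compound dilutions for 1 h at 37 °C, heat-pulsed 10 min at 55 °C, then lysed for enzyme-fragment complementation luminescence. Four-parameter fit, normalised to 0.5% DMSO and 1 μM NDI-094311.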

HepG2 cells = experiment: Fatty acid synthesis (FAS) assay in HepG2 cells; type: cell-based; conditions: Homo sapiens, 1.5 h, 14C-citrate 50 μM, 90 min, read-out: FAS IC50 GMean
Description: HepG2 cells were seeded into white clear-bottom 96-well plates (50,000/well) coated with collagen and incubated at 37° C. for 16-24 hours. Thereafter the plates were washed once with 100 μL PBS (+CaCl2+MgCl2) and 50 μL assay medium ([…] containing 11 mM glucose, 10 mM HEPES and 1 nM Insulin) per well was added. Test substances in assay medium were added (10 μL, 0.5% DMSO) and incubated for 20 min at 37° C. After that 10 μL assay medium containing ^14C-citrate (final concentration 50 μM) and PrestoBlue reagent (lx final concentration; ThermoFisher) were added and incubated for 90 min (37° C., 5% CO2). Cell viability was measured (Multiskan FC, microplate reader, absorbance 570 nm). Medium was removed by inverting the plate and cells were washed once with 100 μL ice-cold PBS. Cells were lysed with 50 μL lysis buffer (0.1 N NaOH, 0.1% Triton X-100) and plate was sealed with Tape Pads and vortexed. For the saponification reaction plates were incubated for 16-24 hours at 80° C. Seals were removed and 200 μL 0.1 N HCl was added for neutralisation of the pH. 150 μL from each well was transferred into the corresponding wells of a 96-well Flash plate (Perkin Elmer) and sealed with TopSeal A (Perkin Elmer). Plates were incubated for 4 h at 70° C., and for 1 h at room temperature in the dark. Signal of ^14C radioactivity was measured (TopCount). As a positive control 5 mM unlabelled citrate or C75 (Sigma, C5490) was applied.

[4] = 15-membered ring
[5] = from COc1c(Cl)cc(C(=O)O)cc1S(=O)(=O)Cc1cc(-c2ccccc2OCCN)c(F)cc1F; amide bond; 15-membered ring; T3P/DIPEA; DMF; 48.0 mM; 21.0 h
[6] = amide bond; 15-membered ring; T3P/DIPEA; EtOAc/DMF; 4.9 mM

Recombinant human ACLY full length protein, sequence (P53396 whole entry): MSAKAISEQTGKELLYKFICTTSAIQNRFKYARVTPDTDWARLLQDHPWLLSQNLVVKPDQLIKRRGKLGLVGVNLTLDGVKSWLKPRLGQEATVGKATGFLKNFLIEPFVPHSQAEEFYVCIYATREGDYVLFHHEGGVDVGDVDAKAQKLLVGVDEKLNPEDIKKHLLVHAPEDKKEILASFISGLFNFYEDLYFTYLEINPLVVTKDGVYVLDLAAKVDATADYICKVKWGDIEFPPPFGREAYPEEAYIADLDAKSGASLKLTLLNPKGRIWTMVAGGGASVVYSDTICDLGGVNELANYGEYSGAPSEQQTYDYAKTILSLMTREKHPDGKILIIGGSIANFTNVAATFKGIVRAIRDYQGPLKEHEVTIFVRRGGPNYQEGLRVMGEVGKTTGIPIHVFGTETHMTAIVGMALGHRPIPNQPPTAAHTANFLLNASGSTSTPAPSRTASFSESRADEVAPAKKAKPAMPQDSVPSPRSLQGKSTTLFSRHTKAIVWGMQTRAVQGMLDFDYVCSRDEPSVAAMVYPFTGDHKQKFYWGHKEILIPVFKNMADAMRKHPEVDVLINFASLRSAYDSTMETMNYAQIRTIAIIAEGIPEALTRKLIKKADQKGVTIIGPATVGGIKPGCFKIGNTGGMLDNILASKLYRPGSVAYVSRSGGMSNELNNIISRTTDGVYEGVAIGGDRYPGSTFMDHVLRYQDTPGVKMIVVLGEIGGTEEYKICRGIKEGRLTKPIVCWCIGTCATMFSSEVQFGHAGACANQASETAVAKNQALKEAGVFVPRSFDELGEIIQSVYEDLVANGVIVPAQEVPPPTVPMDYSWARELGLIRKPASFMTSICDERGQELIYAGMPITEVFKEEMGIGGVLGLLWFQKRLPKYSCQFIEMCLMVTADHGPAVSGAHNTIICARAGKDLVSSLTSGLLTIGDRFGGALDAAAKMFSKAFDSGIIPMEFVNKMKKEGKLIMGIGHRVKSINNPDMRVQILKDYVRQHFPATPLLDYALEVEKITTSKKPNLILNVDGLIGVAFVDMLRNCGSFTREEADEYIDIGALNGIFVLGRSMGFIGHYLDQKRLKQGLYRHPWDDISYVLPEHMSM
T1 sequence (P53396 whole entry): as above

Row | Compound | IC50 (ACLY [1]) [nM] | IC50 [2] [nM] | IC50 (ACLY [3]) [nM] | IC50 (HepG2 cells) [nM] | ring closure, yield after HPLC ([4]; from 3-[[5-[2-(2-aminoethoxy)phenyl]-2,4-difluoro-phenyl]sulfamoyl]-5-chloro-4-(difluoromethoxy)benzoic acid·HCl, amide bond, T3P/DIPEA, DMF, 18.1 mM) [%] | ring closure, yield after HPLC ([4]; from COc1c(Cl)cc(C(=O)O)cc1S(=O)(=O)Nc1cc(-c2ccccc2OCCO)c(F)cc1F, ester bond, 2,4,6-trichlorobenzoyl chloride/DIEA/DMAP, THF, 13.1 mM, 65.0 °C, 4.0 h) [%] | ring closure, crude yield [5] [%] | ring closure, isolated yield [6] [%]
1 | O=C1NCCOc2ccccc2-c2cc(c(F)cc2F)NS(=O)(=O)c2cc1cc(Cl)c2OC(F)F [Compound 15, 15-chloro-16-(difluoromethoxy)-21,23-difluoro-8-oxa-18lambda6-thia-11,19-diazatetracyclo[18.3.1.1^13,17.0^2,7]pentacosa-1(24),2,4,6,13,15,17(25),20,22-nonaene-12,18,18-trione] | ≥ 10000 | ≥ 1000 | ≥ 50000 | 2000 to 10000 | 48 |  |  | 
2 | O=C1OCCOc2ccccc2-c2cc(c(F)cc2F)NS(=O)(=O)c2cc1cc(Cl)c2O [Compound 7, 15-chloro-21,23-difluoro-16-hydroxy-8,11-dioxa-18lambda6-thia-19-azatetracyclo[18.3.1.1^13,170^2,7]pentacosa-1(24),2,4,6,13,15,17(25),20,22-nonaene-12,18,18-trione] |  |  |  | < 2000 |  |  |  | 
3 | CN1c2cc(c(F)cc2F)-c2ccccc2OCCNC(=O)c2cc(Cl)c(O)c(c2)S1(=O)=O [Compound 9, 15-chloro-21,23-difluoro-16-hydroxy-19-methyl-8-oxa-18lambda6-thia-11,19-diazatetracyclo[18.3.1.1^13,17.0^2,7]pentacosa-1(24),2,4,6,13,15,17(25),20,22-nonaene-12,18,18-trione] | ≥ 10000 | ≥ 1000 | ≥ 50000 | ≥ 50000 |  |  |  | 
4 | O=C1NCCCOc2ccccc2-c2cc(c(F)cc2F)NS(=O)(=O)c2cc1cc(Cl)c2O [Compound 6, 16-chloro-22,24-difluoro-17-hydroxy-8-oxa-19lambda6-thia-12,20-diazatetracyclo[19.3.1.1^14,18.0^2,7]hexacosa-1(25),2,4,6,14,16,18(26),21,23-nonaene-13,19,19-trione] | 100 to 10000 | 10 to 1000 | ≥ 50000 | 10000 to 50000 |  |  |  | 
5 | COc1c(Cl)cc2cc1S(=O)(=O)Nc1cc(c(F)cc1F)-c1ccccc1OCCOC2=O |  |  |  |  |  | 18 |  | 
6 | C[C@H]1COc2ccccc2-c2cc(c(F)cc2F)NS(=O)(=O)c2cc(cc(Cl)c2O)C(=O)N1 [Compound 17, (10S)-15-chloro-21,23-difluoro-16-hydroxy-10-methyl-8-oxa-18lambda6-thia-11,19-diazatetracyclo[18.3.1.1^13,17.0^2,7]pentacosa-1(24),2,4,6,13,15,17(25),20,22-nonaene-12,18,18-trione] | 100 to 10000 | 10 to 1000 | ≥ 50000 | ≥ 50000 |  |  |  | 
7 | COc1c(Cl)cc2cc1S(=O)(=O)Cc1cc(c(F)cc1F)-c1ccccc1OCCNC2=O |  |  |  |  |  |  | 81 | 
8 | O=C1NCCOc2ccccc2-c2cc(c(F)cc2F)NS(=O)(=O)c2cc1cc(Cl)c2O [Compound 2, 15-chloro-21,23-difluoro-16-hydroxy-8-oxa-18lambda6-thia-11,19-diazatetracyclo[18.3.1.1^13,17.0^2,7]pentacosa-1(24),2,4,6,13,15,17(25),20,22-nonaene-12,18,18-trione] | 20 to 100 | 1 to 10 | 1000 to 50000 | ≥ 50000 |  |  |  | 
9 | CN1CCCc2ccccc2-c2cc(c(F)cc2F)NS(=O)(=O)c2cc(cc(Cl)c2O)C1=O [Compound 10, 15-chloro-21,23-difluoro-16-hydroxy-11-methyl-18lambda6-thia-11,19-diazatetracyclo[18.3.1.1^13,17.0^2,7]pentacosa-1(24),2,4,6,13,15,17(25),20,22-nonaene-12,18,18-trione] | 20 to 100 | 1 to 10 | < 300 | 2000 to 10000 |  |  |  | 
10 | COc1c(Cl)cc2cc1S(=O)(=O)Nc1cc(c(F)cc1F)-c1ccccc1OCCNC2=O [Compound 1, 15-chloro-21,23-difluoro-16-methoxy-8-oxa-18lambda6-thia-11,19-diazatetracyclo[18.3.1.1^13,17.0^2,7]pentacosa-1(24),2,4,6,13,15,17(25),20,22-nonaene-12,18,18-trione] |  | ≥ 1000 |  |  |  |  |  | 72

The next lines start with results.

Row | IC50 (ACLY [1]) [nM] | IC50 [2] [nM] | IC50 (ACLY [3]) [nM] | IC50 (HepG2 cells) [nM] | Compound | ring closure, yield after HPLC ([4]; from 3-[[5-[2-(2-aminoethoxy)phenyl]-2,4-difluoro-phenyl]sulfamoyl]-5-chloro-4-(difluoromethoxy)benzoic acid·HCl, amide bond, T3P/DIPEA, DMF, 18.1 mM) [%] | ring closure, yield after HPLC ([4]; from COc1c(Cl)cc(C(=O)O)cc1S(=O)(=O)Nc1cc(-c2ccccc2OCCO)c(F)cc1F, ester bond, 2,4,6-trichlorobenzoyl chloride/DIEA/DMAP, THF, 13.1 mM, 65.0 °C, 4.0 h) [%] | ring closure, crude yield [5] [%] | ring closure, isolated yield [6] [%]
11 | 20 to 100 | 1 to 10 | 1000 to 50000 | 10000 to 50000 | CN1CCOc2ccccc2-c2cc(c(F)cc2F)NS(=O)(=O)c2cc(cc(Cl)c2O)C1=O [Compound 4, 15-chloro-21,23-difluoro-16-hydroxy-11-methyl-8-oxa-18lambda6-thia-11,19-diazatetracyclo[18.3.1.1^13,17.0^2,7]pentacosa-1(24),2,4,6,13,15,17(25),20,22-nonaene-12,18,18-trione] |  |  |  | 
12 | 20 to 100 | < 1 | < 300 | < 2000 | O=C1OCCCc2ccccc2-c2cc(c(F)cc2F)NS(=O)(=O)c2cc1cc(Cl)c2O [Compound 16, 15-chloro-21,23-difluoro-16-hydroxy-11-oxa-18lambda6-thia-19-azatetracyclo[18.3.1.1^13,17.0^2,7]pentacosa-1(24),2,4,6,13,15,17(25),20,22-nonaene-12,18,18-trione] |  |  |  | 
13 | 20 to 100 | 1 to 10 | 300 to 1000 | 2000 to 10000 | O=C1OCCOc2cc(Cl)ccc2-c2cc(c(F)cc2F)NS(=O)(=O)c2cc1cc(Cl)c2O [Compound 18, 5,15-dichloro-21,23-difluoro-16-hydroxy-8,11-dioxa-18lambda6-thia-19-azatetracyclo[18.3.1.1^13,17.0^2,7]pentacosa-1(24),2,4,6,13,15,17(25),20,22-nonaene-12,18,18-trione] |  |  |  | 
14 | 20 to 100 | 1 to 10 | 300 to 1000 | 10000 to 50000 | O=C1NCCCc2ccccc2-c2cc(c(F)cc2F)NS(=O)(=O)c2cc1cc(Cl)c2O [Compound 8, 15-chloro-21,23-difluoro-16-hydroxy-18lambda6-thia-11,19-diazatetracyclo[18.3.1.1^13,17.0^2,7]pentacosa-1(24),2,4,6,13,15,17(25),20,22-nonaene-12,18,18-trione] |  |  |  | 
